Columns and labels:
[1] = system: senescent A549 cells, IMR90 cells, RPE cells, mouse chondrocytes, mouse skin fibroblasts; experiment: Cell viability of senescent cells (CellTiter-Glo); format: cell-based, human; settings: 1 μM, 72 hours; etoposide (10 μM)-induced senescent cells; FIGS. 2A to 2E
Experimental: (§1) In this example, human non-small cell lung cancer cell line (A549 cells), human embryonic lung fibroblast cell line (IMR90 cells), human retinal pigment epithelial cells (RPE cells), mouse chondrocytes, and mouse skin fibroblasts were selected. The cells above were induced to obtain senescent cells by etoposide (10 μM). The effect of the target compounds RZ001-RZ006 and RZ201 on the viability of normal and senescent cells above was detected, thereby evaluating the specific killing effect of the prodrugs RZ001-RZ006 and RZ201 on senescent cells above.
(§2) Briefly, senescent and normal cells above were selected and plated separately (96-well plates). After adding the compounds RZ001-RZ006 and RZ201 (concentration: 1 μM) for 72 hours, CellTiter-Glo® Luminescent Cell Viability Assay Kit (Promega) was used to detect cell viability, and the results were shown in FIGS. 2A to 2E.

[2] = system: normal A549 cells, IMR90 cells, RPE cells, mouse chondrocytes, mouse skin fibroblasts; experiment: Cell viability of normal cells (CellTiter-Glo); format: cell-based, human; settings: 1 μM, 72 hours, FIGS. 2A to 2E
Experimental: as §1, §2

[3] = system: oxygen-induced retinopathy (OIR); experiment: Mouse model of oxygen-induced retinopathy (OIR); format: in vivo; settings: intravitreal (IVT), 1 μl of 200 μM at P12, retinas at P17, IB4 staining; FIG. 3
Experimental: The efficacy of the prodrugs RZ001-RZ006 as well as RZ201 were investigated in a mouse model of oxygen-induced retinopathy (OIR) which to some extent indicates an in vivo model of retinopathy of prematurity (ROP), diabetic retinopathy, and wet age-related macular degeneration. From postnatal Day 7 (P7) to Day 12 (P12), C57Bl/6 mouse pups and their CD1 foster mothers were exposed to hyperoxia (75% O2). At P12, the animals were injected intravitreally with 1 μl of the test composition formulated in 1% DMSO, 10% Tween 80, and 20% PEG-400 (200 μM the compound) and returned to room air until Day 17 (P17). On P17, the eyeballs were enucleated and the retinas were dissected for vascular staining. To determine the area of avascularity or angiogenesis, the retinas were flattened and stained with isolectin B4 (IB4).

osteoarthritis = experiment: Osteoarthritis animal model; format: in vivo, mice; settings: intra-articular injection; FIG. 7
Experimental: In this example, the efficacy of the compounds of the present disclosure was tested on osteoarthritis in an osteoarthritis animal model.
The osteoarthritis animal model was constructed by the following steps. The mice were anesthetized with isoflurane, and fixed. The hair on the right hind limb of the mice was shaved and the skin was disinfected with alcohol, and the skin of the joints was cut. Under an optical microscope, the inside of the right knee joint was incised longitudinally with a blade, without cutting the patellar ligament. The patellar ligament was pulled to one side with constant hemostasis by compression with sterile cotton swabs such that the joint cavity was fully exposed. Saline was added dropwise in time to avoid the drying up of the joint cavity. The excess muscle tissue was gently separated with a blunt forceps to expose the meniscus ligament. The anterior cruciate ligament was found in the depth of the joint cavity and cut with micro scissor. Then the wound was disinfected with penicillin solution, the muscle was sutured with sterile needle and thread, and the skin tissue was finally sutured. The efficacy of the drug was determined by intra-articular injection administration. At the endpoint of the test, continued pain threshold of the plantar was detected, and the bone joints were stained with safranin fast green.

Alzheimer's disease = experiment: APP×PS1 transgenic mouse model of Alzheimer's disease; format: in vivo; settings: intraperitoneal injection, twice a week, 11 consecutive weeks; cerebral cortex; FIG. 8
Experimental: In this example, the efficacy of the compounds of the present disclosure was tested on Alzheimer's disease in an animal model of Alzheimer's disease. Briefly, a transgenic mouse model of APP×PS1 (purchased from Cyagen Biosciences) was selected and the compound of the present disclosure was administered by intraperitoneal injection for 11 consecutive weeks, twice a week. Alterations in amyloid in the cerebral cortex of the mice were observed.

hypertrophic scars = experiment: Rabbit ear hypertrophic scar model; format: in vivo, New Zealand white rabbits; settings: 150 μM, 100 μL injected into lesion once a week, 4 injections, from postoperative Day 14; FIG. 12
Experimental: In this example, the efficacy of the compounds of the present disclosure was tested on hypertrophic scars in a rabbit ear hypertrophic scar animal model. Briefly, 10 New Zealand white rabbits, male, 3 months old, were used. The New Zealand rabbits were anaesthetized with sodium pentobarbital and six circular full-thickness wounds with a diameter of 10 mm were made on the ventral surface of each ear by removing the epidermis, dermis and perichondrium to expose the cartilage. The rabbits were randomly divided into control and RZ001 experimental groups. On postoperative Day 14, after complete re-epithelialization of the wound surface, the compound (150 μM, 100 μL, dissolved in DMSO solution) or negative control DMSO 100 μL was injected into the center of each lesion from the wound edge once a week for a total of 4 injections. Improvement of scar formation by the compound was assessed by SEI (Scar Excess Index).

Structure (SMILES) | cytotoxicity against senescent cells (cell viability) [1] | cytotoxicity against normal cells (cell viability) [2] | angiogenesis [3] | avascular zone [3] | pathology scores of safranin fast green staining (osteoarthritis) | plantar mechanical pain threshold (osteoarthritis) | Aβ42 pathogenic protein indicators (Alzheimer's disease) | scar excess index (SEI) (hypertrophic scars)
Cc1oc(=O)oc1COC(=O)c1nc(N2CCc3cccc(C(=O)Nc4nc5ccccc5s4)c3C2)ccc1-c1cnn(CC23CC4CC(CC(C4)C2)C3)c1C [RZ201] | cytotoxicity primarily against senescent cells | without significant killing effects on normal cells | statistically significant improvements | statistically significant improvements | statistically significant improvements | statistically significant improvements | statistically significant improvements | –
Cc1c(-c2ccc(N3CCc4cccc(C(=O)Nc5nc6ccccc6s5)c4C3)nc2C(=O)OCOC(=O)C(C)C)cnn1CC12CC3CC(CC(C3)C1)C2 [RZ001] | – | – | – | – | statistically significant improvements | statistically significant improvements | statistically significant improvements | statistically significant improvement
